Data: PMC8309051, “Structure–Activity Relationship and Molecular Docking of a Kunitz-Like Trypsin Inhibitor, Kunitzin-AH, from the Skin Secretion of Amolops hainanensis” (Pharmaceutics, 2021)
Where two headings read alike, the source gives them in different places. Where a SMILES comes first, the peptide text is derived from it. Bridges are numbered along the chain shown (N, C = ends).

What was measured:
horse erythrocytes = assay: Hemolytic activity assay; format: cell-based; conditions: for Hemolysis: 2% horse erythrocytes suspension, 37 °C, two hours
Experimental: Hemolysis assay was conducted through the incubation of peptides and 2% horse erythrocytes suspension (T.C.S. Biosciences Ltd. Buckingham, UK) at 37 °C for two hours as detailed in the previous study. Afterwards, the positive control (considered as 100% hemolysis of cells) was conducted with 1% Triton X-100 (Sigma, Dorset, UK), while the negative control (0%) was treated with phosphate-buffered saline (PBS). The absorbance values were subsequently measured with a Synergy H.T. plate reader (BioTech, Minneapolis, MN, USA) and calculated by using Gen 5 software at a wavelength of 550 nm.

bovine trypsin = molecular target: T1, bovine trypsin (Bos taurus, UniProt P00760); assay: Trypsin inhibition assay (kinetic, substrate Phe-Pro-Arg-AMC); format: biochemical
T1 sequence (P00760 24-246): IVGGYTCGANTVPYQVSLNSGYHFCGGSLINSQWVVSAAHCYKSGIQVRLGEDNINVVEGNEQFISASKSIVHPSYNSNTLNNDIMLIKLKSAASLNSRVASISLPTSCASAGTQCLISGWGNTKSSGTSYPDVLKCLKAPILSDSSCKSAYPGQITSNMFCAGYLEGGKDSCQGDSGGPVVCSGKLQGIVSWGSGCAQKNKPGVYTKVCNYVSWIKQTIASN
Experimental: The kinetic enzyme assay was performed as described in the previous study. Substrate Phe-Pro-Arg-AMC was employed for investigating the hydrolysis of bovine trypsin. Trypsin working solution (10 µL trypsin stock solution (0.1 µM) + 9.99 mL HCl (1 mM)) and trypsin substrate working solution (50 µL substrate stock solution (Phe-Pro-Arg-AMC) (10 mM) + 9.95 mL PBS) were prepared prior to use. Trypsin inhibition assay contained three groups, namely positive control (20 µL PBS, 180 µL substrate working solution, 10 µL trypsin working solution), blank control (20 µL PBS + 10 µL HCl (1 mM) + 180 µL substrate working solution) and peptide group (20 µL peptide solution with the concentration ranging from 10 to 1000 µM, 180 µL substrate working solution, 10 µL trypsin working solution). The fluorescent strength released from hydrolysis of the substrate was monitored at 37 °C at the wavelength of 460 nm (excitation at 360 nm) in a POLARstar Omega Microplate Reader (B.M.G. Labtech, Offenburg, German). Each concentration of the sample was carried out in triplicate and repeated at least three times.
Peptide concentration ( μM)
Figure S3. The progress curve of inhibition rate in the presence of different concentrations of pep-tides (a) Kunitzin-AH; (b) AH-1363; (c) AH-unoxidized; (d) AH-1447; (e) AH-798; (f) AH-880-I; (g) […]
The Y-axis represented the rate of the fluorescence decay, while the X-axis represented peptide concentrations in µM. The Ki values were calculated by Morrison formula in Prism 6, in […]
Error bars represent standard error of mean
(SEM) of three replicates. […]

[1] = Morrison formula, three independent experiments, 37 °C, read-out: Ki Value

Question: For C[C@@H]1NC(=O)[C@H](C)NC(=O)[C@H](CCCCN)NC(=O)[C@@H](NC(=O)[C@@H](N)CCCNC(=N)N)CSSC[C@@H](C(=O)O)NC(=O)[C@H](Cc2ccccc2)NC1=O [AH-798, RCKAAFC] (H-RCKAAFC-OH; disulfide 2-7), which Hemolysis (horse erythrocytes) is on record?
Answer: >512 µM

Question: What about the Ki (bovine trypsin; [1]) of the same compound?
Answer: 1.76 ± 0.13 µM

Question: CC[C@H](C)[C@@H]1NC(=O)[C@H](CCCCN)NC(=O)[C@@H](NC(=O)[C@@H](N)CCCNC(=N)N)CSSC[C@@H](C(=O)O)NC(=O)[C@H](Cc2ccccc2)NC(=O)[C@H]([C@@H](C)CC)NC1=O [AH-880-I, RCKIIFC] (H-RCKIIFC-OH; disulfide 2-7) was tested. Which Hemolysis (horse erythrocytes) did it give?
Answer: >512 µM

Question: What about the Ki (bovine trypsin; [1]) of the same compound?
Answer: 16.1 ± 1.2 µM

Question: N=C(N)NCCC[C@H](N)C(=O)N[C@H]1CSSC[C@@H](C(=O)O)NC(=O)[C@H](Cc2ccccc2)NC(=O)[C@H](CC(N)=O)NC(=O)[C@H](CC(N)=O)NC(=O)[C@H](CCCCN)NC1=O [AH-884, RCKNNFC] (H-RCKNNFC-OH; disulfide 2-7) was tested. Which Hemolysis (horse erythrocytes) did it give?
Answer: >512 µM

Question: And the Ki (bovine trypsin; [1])?
Answer: 133 ± 4.1 µM

Question: Which Hemolysis (horse erythrocytes) does the source give for CC(C)[C@H](NC(=O)[C@H](C)N)C(=O)N[C@@H](CCCNC(=N)N)C(=O)N1CCC[C@H]1C(=O)N1CCC[C@H]1C(=O)N[C@@H](Cc1ccccc1)C(=O)N[C@@H](CCCNC(=N)N)C(=O)N[C@@H](CS)C(=O)N[C@@H](CCCCN)C(=O)N[C@@H](C)C(=O)N[C@@H](C)C(=O)N[C@@H](Cc1ccccc1)C(=O)O [AH-1363, AVRPPFRCKAAF] (H-AVRPPFRCKAAF-OH; N-terminus and C-terminus assumed) here?
Answer: >512 µM

Question: And the Ki (bovine trypsin)?
Answer: 96.9 ± 1.2 µM

Question: Which Hemolysis (horse erythrocytes) does the source give for CC(C)[C@H](NC(=O)[C@H](C)N)C(=O)N[C@@H](CCCNC(=N)N)C(=O)N1CCC[C@H]1C(=O)N1CCC[C@H]1C(=O)N[C@@H](Cc1ccccc1)C(=O)N[C@@H](CCCNC(=N)N)C(=O)N[C@H]1CSSC[C@@H](C(=O)O)NC(=O)[C@H](CCCCN)NC(=O)[C@H](C)NC(=O)[C@H](C)NC(=O)[C@H](CCCCN)NC1=O [AH-1447, AVRPPFRCKAAKC] (H-AVRPPFRCKAAKC-OH; disulfide 8-13) here?
Answer: >512 µM

Question: What about the Ki (bovine trypsin) of the same compound?
Answer: 349.2 ± 0.93 µM

Question: Which results are given for CC(C)[C@H](NC(=O)[C@H](C)N)C(=O)N[C@@H](CCCNC(=N)N)C(=O)N1CCC[C@H]1C(=O)N1CCC[C@H]1C(=O)N[C@@H](Cc1ccccc1)C(=O)N[C@@H](CCCNC(=N)N)C(=O)N[C@@H](CS)C(=O)N[C@@H](CCCCN)C(=O)N[C@@H](C)C(=O)N[C@@H](C)C(=O)N[C@@H](Cc1ccccc1)C(=O)N[C@@H](CS)C(=O)O [AH-unoxidized, AVRPPFRCKAAFC] (H-AVRPPFRCKAAFC-OH)?
Answer: Hemolysis (horse erythrocytes): >512 µM; Ki (bovine trypsin): 59.9 ± 2.82 µM

Question: Which Hemolysis (horse erythrocytes) does the source give for CC(C)[C@H](NC(=O)[C@H](C)N)C(=O)N[C@@H](CCCNC(=N)N)C(=O)N1CCC[C@H]1C(=O)N1CCC[C@H]1C(=O)N[C@@H](Cc1ccccc1)C(=O)N[C@@H](CCCNC(=N)N)C(=O)N[C@H]1CSSC[C@@H](C(=O)O)NC(=O)[C@H](Cc2ccccc2)NC(=O)[C@H](C)NC(=O)[C@H](C)NC(=O)[C@H](CCCCN)NC1=O [Kunitzin-AH, AVRPPFRCKAAFC] (H-AVRPPFRCKAAFC-OH; disulfide 8-13) here?
Answer: >512 µM

Question: What about the “hemolytic activity (in words)” value (horse erythrocytes; normal horse erythrocytes) of the same compound?
Answer: without inducing damage to healthy horse erythrocytes

Question: What about the Ki (bovine trypsin) of the same compound?
Answer: 1.18 ± 0.08 µM
